Assay results taken from article PMC8428568, “Discovery of re-purposed drugs that slow SARS-CoV-2 replication in human cells” (PLoS Pathogens, 2021).
Counter-ions that a name gives are not always drawn. Like-named read-outs stand apart in the source and are kept apart here.

Experiments:
[1] = system: Vero cells
[2] = system: SARS-CoV-2-ΔOrf7a-NLuc virus; assay: Post-infection treatment: Vero cells infected 24 hrs with SARS-CoV-2-ΔOrf7a-NLuc, then compound for 48 hrs, bioluminescence; assay type: cell-based; conditions: change in replication relative to DMSO; cells infected 24 hrs, then treated 48 hrs
[3] = system: SARS-CoV-2-ΔOrf7a-NLuc virus; assay: microbe, parasite or virus in culture; assay type: cell-based; conditions: for activity at 10 µM: Severe acute respiratory syndrome coronavirus 2, Vero, 72 h, read-out: Mean relative luminescence (n=4); for IC50: Severe acute respiratory syndrome coronavirus 2, Vero cells; for Mean relative luminescence (n=4): Vero screen
[4] = system: HUH7 cells
[5] = system: SARS-CoV-2-ΔOrf7a-NLuc virus; assay: microbe, parasite or virus in culture; assay type: cell-based; conditions: for IC50: Severe acute respiratory syndrome coronavirus 2, Huh-7, read-out: HUH7 IC50
[6] = system: recombinant NLuc; assay type: biochemical
[7] = Vero cells, 10 μM, 1 = DMSO-treated infected cells
[8] = […], 1 = untreated, 0 = total inhibition
[9] = HUH7 screen, […], relative luminescence
[10] = recombinant NLuc activity relative to DMSO
[11] = recombinant NLuc, first read column
[12] = recombinant NLuc, fourth read column
[13] = recombinant NLuc, third read column

Row | Structure (SMILES) | PrestoBlue relative viability [1, 7] | PrestoBlue relative viability ([1]; Vero screen) | % activity in Vero 100PFU screen [3] | activity at 10 µM [3, 8] | Mean relative luminescence (n=4) ([3]; […]) | PrestoBlue relative viability ([4]; HUH7 screen) | Mean relative luminescence (n=4) [5, 9] | Relative Recombinant NLUC [6, 10] | Reads Counts per second (read 1) [6, 11] | Reads Counts per second (read 4) [6, 12] | Reads Counts per second (read 3) [6, 13] | further results
1 | CCN(CC)Cc1cc(Nc2ccnc3cc(Cl)ccc23)ccc1O [Amodiaquine, Amodiaquine dihydrochloride dihydrate] | 0.6404 | 0.6404 | 12% | 10.1% | 0.1007 | 0.7783 | 0.01258 | 0.9146 | 351271 Counts per second | 339282 Counts per second | 344113 Counts per second | Post-infection at IC50 [2]: -25%; IC50 [3]: 5 µM; IC50 [5]: 1 µM; Reads Counts per second (read 2) ([6]; recombinant NLuc): 347518 Counts per second
2 | COc1nc2ccc(Br)cc2cc1[C@@H](c1ccccc1)[C@@](O)(CCN(C)C)c1cccc2ccccc12 [Bedaquiline] | 0.8784 | – | 3.54% | 1.02% | – | – | – | 0.9285 | 348601 Counts per second | 351646 Counts per second | 347079 Counts per second | Post-infection at IC50 [2]: -30%; IC50 [3]: 10 µM; IC50 [5]: 5 µM; Reads Counts per second (read 2) ([6]; recombinant NLuc): 355872 Counts per second
3 | CC[C@H](C)C(=O)O[C@H]1C[C@@H](C)C=C2C=C[C@H](C)[C@H](CC[C@@H]3C[C@@H](O)CC(=O)O3)[C@H]21 [Lovastatin] | 0.5479 | 0.5479 | 9% | 8.28% | 0.0828 | 1.075 | 0.08758 | 0.9319 | 351803 Counts per second | 349914 Counts per second | 353101 Counts per second | –
4 | CCOC(=O)C1=C(C)NC(C)=C(C(=O)OC)C1c1cccc([N+](=O)[O-])c1 (centres unmarked) [Nitrendipine] | 0.8649 | 0.8649 | 8.56% | 7.21% | 0.07211 | 0.6545 | 0.0007292 | 0.06915 | 26271 Counts per second | 26141 Counts per second | 26096 Counts per second | –
5 | OCCOc1ccc(/C(=C(/CCCl)c2ccccc2)c2ccccc2)cc1 [Ospemifene] | – | – | 4% | – | – | – | – | – | – | – | – | PrestoBlue relative viability ([1]; African green monkey): 0.6863; activity at 10 µM [3]: 1.57%; PrestoBlue relative viability ([4]; human): 1.203; Mean relative luminescence (n=4) [5]: 0.1449; Reads Counts per second (read 1) [6]: 356755 Counts per second; Reads Counts per second (read 3) [6]: 358779 Counts per second; Reads Counts per second (read 4) [6]: 352991 Counts per second; Relative Recombinant NLUC [6]: 0.9407
6 | O=C(c1ccc(OCCN2CCCCC2)cc1)c1c(-c2ccc(O)cc2)sc2cc(O)ccc12 [Raloxifene HCl] | 0.579 | 0.579 | 6% | 2.63% | 0.02628 | 0.5413 | 0.03646 | 0.8812 | 334037 Counts per second | 335545 Counts per second | 331016 Counts per second | –
7 | Clc1ccc(C(Cn2ccnc2)OCc2ccsc2Cl)c(Cl)c1 (centres unmarked) [Tioconazole] | – | – | 10% | – | – | – | – | – | – | – | – | PrestoBlue relative viability ([1]; African green monkey): 1.172; activity at 10 µM [3]: 7.16%; PrestoBlue relative viability ([4]; human): 1.129; Mean relative luminescence (n=4) [5]: 0.1247; Reads Counts per second (read 1) [6]: 349867 Counts per second; Reads Counts per second (read 3) [6]: 345556 Counts per second; Reads Counts per second (read 4) [6]: 349383 Counts per second; Relative Recombinant NLUC [6]: 0.9221
